Source: the supplement of paper PMC10627819

Legend:
S. aureus Newman = assay: Bliss interaction score (quartile over a dose matrix) (fitness difference); higher = more antagonism (negative = synergy)
Procedure, shortened: (§1)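 The Bliss score subtracts expected fitness, the product of the single-drug fitness values, from observed fitness. Fitness is plate-normalised OD595 at entry into stationary phase, relative to the robust no-drug mean and capped at 1, with single-drug fitness inferred from combinations. Summaries are quartiles over technical, biological and donor/recipient replicates.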

S. pneumoniae D39V [1] = assay: as above
Procedure, shortened: as §1

B. subtilis 168 [2] = assay: as above
Procedure, shortened: as §1

S. aureus DSM 20231 = assay: as above
Procedure, shortened: as §1

S. pneumoniae D39V [3] = assay: fitness (endpoint OD595 vs no drug) (fraction); higher = more growth
Procedure, shortened: (§2)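 Cultures at OD595 0.01 were dispensed into 384-well plates in TSB, LB Lennox or CY and incubated at 37 °C. Every 30 min for 14 h, OD595 was read and corrected by the first reading. Fitness is the optical density at entry into stationary phase relative to the robust mean of no-drug control wells, capped at 1.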

B. subtilis 168 [4] = assay: as above
Procedure, shortened: as §2
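Wherever Bliss interaction score (quartile over a dose matrix) is given: first quartile when negative (synergy) and third quartile when positive (antagonism).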

CN(C)C(=O)C(CCN1CCC(O)(c2ccc(Cl)cc2)CC1)(c1ccccc1)c1ccccc1 [Loperamide] + CCN(CC)CCOC(=O)c1ccc(N)cc1 [Procaine]
Conditions	Bliss interaction score
B. subtilis 168 [2]	-0.0865
S. aureus DSM 20231	0.127
S. aureus Newman	0.0372
S. pneumoniae D39V [1]	-0.0548

fitness
Conditions	partner 85.5 µg/mL	partner 171 µg/mL	partner 342 µg/mL
B. subtilis 168 [4], first compound 25 µg/mL	0.801	0.84	0.763
B. subtilis 168 [4], first compound 50 µg/mL	0.0504	0.0536	0.051
B. subtilis 168 [4], first compound 100 µg/mL	0.0164	0.016	0.052
S. pneumoniae D39V [3], first compound 17.14 µg/mL	0.941	0.905	0.903
S. pneumoniae D39V [3], first compound 34.28 µg/mL	0.97	0.853	0.923

fitness, S. pneumoniae D39V [3], one replicate
Conditions	first compound 20 µg/mL	first compound 40 µg/mL	first compound 68.57 µg/mL	first compound 80 µg/mL
partner 85.5 µg/mL	≥ 1	≥ 1	0.919	0.999
partner 171 µg/mL	≥ 1	≥ 1	0.874	≥ 1
partner 342 µg/mL	≥ 1	0.986	0.88	≥ 1

CN(C)C(=O)C(CCN1CCC(O)(c2ccc(Cl)cc2)CC1)(c1ccccc1)c1ccccc1 [Loperamide] + CN1C2=CC=CC=C2N=C3C1=CC=CC3=O [Pyocyanin]
Conditions	Bliss interaction score
B. subtilis 168 [2]	0.103
S. aureus DSM 20231	-0.0519
S. aureus Newman	-0.0463
S. pneumoniae D39V [1]	0.0757

Conditions	fitness
B. subtilis 168 [4], first compound 25 µg/mL, partner 1.25 µg/mL	0.819
B. subtilis 168 [4], first compound 25 µg/mL, partner 2.5 µg/mL	0.78
B. subtilis 168 [4], first compound 25 µg/mL, partner 5 µg/mL	0.632
B. subtilis 168 [4], first compound 50 µg/mL, partner 5 µg/mL	0.215
B. subtilis 168 [4], first compound 100 µg/mL, partner 1.25 µg/mL	0.062
B. subtilis 168 [4], first compound 100 µg/mL, partner 2.5 µg/mL	0.0311
B. subtilis 168 [4], first compound 100 µg/mL, partner 5 µg/mL	0.0308
S. pneumoniae D39V [3], first compound 17.14 µg/mL, partner 0.325 µg/mL	≥ 1
S. pneumoniae D39V [3], first compound 17.14 µg/mL, partner 0.65 µg/mL	0.984
S. pneumoniae D39V [3], first compound 17.14 µg/mL, partner 1.3 µg/mL	0.797
S. pneumoniae D39V [3], first compound 34.28 µg/mL, partner 0.325 µg/mL	0.993
S. pneumoniae D39V [3], first compound 34.28 µg/mL, partner 0.65 µg/mL	0.945
S. pneumoniae D39V [3], first compound 34.28 µg/mL, partner 1.3 µg/mL	0.729

fitness, S. pneumoniae D39V [3], one replicate
Conditions	first compound 20 µg/mL	first compound 40 µg/mL	first compound 68.57 µg/mL	first compound 80 µg/mL
partner 0.325 µg/mL	≥ 1	≥ 1	≥ 1	≥ 1
partner 0.65 µg/mL	≥ 1	≥ 1	0.964	0.995
partner 1.3 µg/mL	–	–	0.748	–
